The subject of series [1] is thrombin time (TT) in test plasma. Nature of the series: Anticoagulation determination: thrombin time (TT) in plasma. The class given is biochemical. The settings on record: compound added to plasma; linear extrapolation to doubling of the clotting time. As to the method: Dog plasma and rat plasma are obtained from conscious mixed-breed hounds (either sex, hazelton-LRE, Kalamazoo, Mich., U.S.A.) or from anesthetized male Sprague-Dawley rats (Harlan Sprague-Dawley, Inc., Indianapolis, Ind., U.S.A.) by venipuncture into 3.8 percent citrate. Fibrinogen is prepared from in-date ACD human blood as the fraction I-2 according to previous procedures and specifications. Smith, Biochem. J., 185, 1-11 (1980); and Smith, et al., Biochemistry, 11, 2958-2967 (1972). Human fibrinogen is also purchased as 98 percent pure/plasmin free from American Diagnostica, Greenwich, Conn. Coagulation reagents ACTIN, Thromboplastin, and Human plasma are from Baxter Healthcare Corp., Dade Division, Miami, Fla. Bovine thrombin from Parke-Davis (Detroit, Mich.) is used for coagulation assays in plasma.
Coagulation assay procedures are as previously described. Smith, et al., Thrombosis Research, 50, 163-174 (1988). A CoAScreener coagulation instrument (American LABor, Inc.) is used for all coagulation assay measurements. The thrombin time (TT) is measured by adding 0.05 ml saline and 0.05 ml thrombin (10 NIH units/ml) to 0.05 ml test plasma. The activated partial thromboplastin time (APTT) is measured by incubation of 0.05 ml test plasma with 0.05 ml Actin reagent for 120 seconds followed by 0.05 ml CaCl2 (0.02M). The prothrombin time (PT) is measured by adding 0.05 ml saline and 0.05 ml Thromboplastin-C reagent to 0.05 ml test plasma. The compounds of formula I are added to human or animal plasma over a wide range of concentrations to determine prolongation effects on the TT, APTT and PT assays. Linear extrapolations are performed to estimate the concentrations required to double the clotting time for each assay. Each of the particularly preferred examples of the invention listed above was determined to have a TT value of less than 50 ng/mL. For example, the respective values (in ng/mL) for TT were 6, 6 and 23 for the compounds of Examples 1, 3 and 5.

For the next series, the target named is human thrombin (Homo sapiens, UniProt P00734). Nature of the series: Inhibition of the amidase activity of thrombin (chromogenic substrate), Kass. The format is biochemical. As to conditions: purified human thrombin, N-benzoyl-L-Phe-L-Val-L-Arg-p-nitroanilide substrate, pH 7.4; mean over a range of concentrations. The method, then:
The assay is carried out by mixing 50 μl buffer (0.03M Tris, 0.15M NaCl, pH 7.4) with 25 μl of human thrombin solution (purified human thrombin, Enzyme Research Laboratories, South Bend, Ind., at 8 NIH units/ml) and 25 μl of test compound in a solvent (50% aqueous methanol (v:v)). Then 150 μl of an aqueous solution of the chromogenic substate (at 0.25 mg/ml) are added and the rates of hydrolysis of the substrate are measured by monitoring the reactions at 405 nm for the release of p-nitroaniline. Standard curves are constructed by plotting free thrombin concentration against hydrolysis rate. The hydrolysis rates observed with test compounds are then converted to “free thrombin” values in the respective assays by use of the standard curves. The bound thrombin (bound to test compound) is calculated by subtracting the amount of free thrombin observed in each assay from the known initial amount of thrombin used in the assay. The amount of free inhibitor in each assay is calculated by subtracting the number of moles of bound thrombin from the number of moles of added inhibitor (test compound).
The Kass value is the hypothetical equilibrium constant for the reaction between thrombin and the test compound (I). [formula]
Kass is calculated for a range of concentrations of test compounds and the mean value reported in units of liter per mole. […] For example, each of the particularly preferred examples of the invention listed above was determined to have a Kass of at least 100×10^6 L/mole.

The nature of series [2]: Octanol/water distribution coefficient logD at pH 7.4. The class given is physicochemical.

Structures are written as SMILES. Structures can show the parent of a compound that is named as a salt. Where two headings read alike, the source gives them in different places.

For `N=C(N)c1ccc(CNC(=O)[C@@H]2CCCN2C(=O)[C@H](N)CC2CCCCC2)cc1O` [Example 1, D-cyclohexylalanyl-N-[[4-(aminoiminomethyl)-3-hydroxyphenyl]methyl]-L-prolinamide dihydrochloride], in series [1], the “TT (concentration required to double the thrombin clotting time)” value (from here on “TT”) is 6 ng/mL. For the same compound, on human thrombin, the “Kass (hypothetical equilibrium constant for the reaction between thrombin and the test compound)” value (shortened to “Kass”) came out at 7.7e+08 L/mol.

Turning to `N=C(N)c1ccc(CNC(=O)[C@@H]2CCCN2C(=O)[C@@H](CC2CCCCC2)NCC(=O)O)cc1O` [Example 3, N-carboxymethyl-D-cyclohexylalanyl-N-[[4-(aminoiminomethyl)-3-hydroxyphenyl]methyl]-L-prolinamide hydrochloride], in series [1], the “TT” value is 6 ng/mL. Further, the “Kass” value on human thrombin was 1,200×10^6 L/mole. In addition, the “ΔlogD(7.4)” value in series [2] (change versus the corresponding amidino-phenyl compound) is listed as 1.13 log units. In addition, the logD in series [2] (octanol/water distribution coefficient, read-out: logD(7.4)) came out at 0.55.

Regarding `CCS(=O)(=O)N[C@H](CC1CCCCC1)C(=O)N1CCC[C@H]1C(=O)NCc1ccc(C(=N)N)c(O)c1` [Example 5, N-ethylsulfonyl-D-cyclohexylalanyl-N-[[4-(aminoiminomethyl)-3-hydroxyphenyl]methyl]-L-prolinamide hydrochloride], in series [1], the “TT” value is listed as 23 ng/mL. For the same compound, the “Kass” value at human thrombin was determined as 1e+08 L/mol. In addition, in series [2], the logD was found to be 1.91 and the “ΔlogD(7.4)” value worked out at 5.80 log units.

These data come from patent US6534650B2, “Benzisoxazole and 4-amidino-3-hydroxyphenyl chemical intermediates” (Eli Lilly and Company, priority 1996, dated 2003).
